Test results published in patent US20170135322A1, “A BIOCONTROL COMBINATION AND METHOD FOR IMPROVING QUALITY OF SHELLED EGGS” (NOBACTRA ISRAEL Ltd., priority 2014, published 2017).
Several values for one entry are separate records, joined by “and”; a condition that tells them apart may be missing. Identical values can stand only once.

Experiments:
Assay in all cases: Effect on fungi growth (Example III)
Format in all cases: cell-based
[1] = tested on: Fusarium Spp. (isolate #1); conditions: additive 10%, without biocontrol formulation, initial diameter 0.5 cm
Description: (§1) The effect of various additives on fungi growth was examined. The fungi examined included two isolates of Fusarium Spp. (isolate #1 and isolate #2), sclerotium, and trychoderma.
(§2) The larger the colony's dimension (diameter) in the petri dish, the lower is the inhibitory effect of the additive. The initial diameter of the colony before treatment was 0.5 cm.

[2] = tested on: Fusarium Spp. (isolate #2); conditions: additive 10%, without biocontrol formulation, initial diameter 0.5 cm
Description: as §1, §2

sclerotium = conditions: additive 10%, without biocontrol formulation, initial diameter 0.5 cm
Description: as §1, §2

trychoderma = conditions: additive 10%, without biocontrol formulation; initial diameter 0.5 cm
Description: as §1, §2

SMILES	colony size (diameter) [1]	colony size (diameter) [2]	colony size (diameter) (sclerotium)	colony size (diameter) (trychoderma)	colony size (diameter) ([1]; hydrate)	colony size (diameter) ([2]; hydrate)	colony size (diameter) (sclerotium; hydrate)
O=C([O-])O.[Na+] [Sodium bicarbonate, sodium bicarbonate]	1.0 cm and 1.1 cm	0.5 cm	0.5 cm	0.5 cm	–	–	–
O=C([O-])O.[K+] [Potassium bicarbonate, potassium becarbonate]	1.6 cm and 1.5 cm and 2.0 cm and 1.8 cm	1.3 cm and 1.2 cm	0.5 cm	0.5 cm	–	–	–
O.O.O.O.O.O.O.O=S(=O)([O-])[O-].[Mg+2] [Magnesium sulphate hepta hydrate, magnesiumsulphate hepta hydrate]	–	–	–	0.5 cm	3.2 cm and 3.1 cm	3.0 cm and 3.1 cm	3.0 cm and 2.7 cm and 2.5 cm and 2.2 cm
